# Measurements from ChEMBL document CHEMBL4402583, “Rational Substitution of ε-Lysine for α-Lysine Enhances the Cell and Membrane Selectivity of Pore-Forming Melittin” (J Med Chem, 2020).
# Active and inactive are the calls of the source. No cut-off for these calls is given here.
# Tests used:
# [1] = Hemolytic activity against human erythrocytes assessed as hemoglobin release incubated for 1 hr; type: ADME, cell-based, Erythrocyte; details: read-out: HD50
# [2] = tested on: Acinetobacter baumannii; assay: Antibacterial activity against Acinetobacter baumannii ATCC 19606 assessed as reduction in bacterial growth at sublethal concentrations measured after 20 serial passages by broth microdilution method; type: functional, organism-based; details: ATCC 19606 = CIP 70.34 = JCM 6841
# [3] = tested on: Oryctolagus cuniculus; assay: Induction of reepithelialization in injured New Zealand white rabbit cornea assessed as wound healing administered topically for qid measured at day 3 post-injury by fluorescein sodium staining based microscopic imaging analysis (reference value: 63.9 +/- 5.3 %); type: organism-based; details: in vivo, topical_or_ocular
# [4] = tested on: HaCaT; assay: Cytotoxicity against human HaCaT cells assessed as truncation and reduction in cytoskeleton at 500 ug/ml incubated for 24 hrs by Alexa Fluor […] phalloidin-FITC/Hoescht dye staining based fluorescence microscopic analysis; type: cell-based
# [5] = Stability of the compound in rabbit tear fluids assessed as parent compound remaining measured after 4 hrs by UPLC-MS analysis; type: ADME, Oryctolagus cuniculus; details: tear fluid, read-out: Stability
# [6] = tested on: Oryctolagus cuniculus; assay: Induction of reepithelialization in injured New Zealand white rabbit cornea assessed as wound healing administered topically for qid measured at day 8 post-injury by fluorescein sodium staining based microscopic imaging analysis (reference value: 3.8 %); type: organism-based; details: in vivo, topical_or_ocular
# [7] = tested on: Enterococcus faecalis; assay: Induction of pore formation in intact vancomycin-resistant Enterococcus faecalis 1002 cell membrane assessed as SG uptake at 2 times MIC by SG dye based fluorescence based assay; type: organism-based
# [8] = tested on: Candida albicans; assay: Antifungal activity against Candida albicans assessed as reduction in fungal growth incubated for 24 hrs by broth microdilution method; type: functional
# [9] = tested on: Enterococcus faecalis; assay: Induction of pore formation in intact vancomycin-resistant Enterococcus faecalis ATCC 29212 cell membrane assessed as SG uptake at 2 times MIC by SG dye based fluorescence based assay; type: organism-based
# [10] = tested on: Staphylococcus aureus; assay: Antibacterial activity against methicillin-resistance Staphylococcus aureus assessed as reduction in bacterial growth incubated for 24 hrs by broth microdilution method; type: functional
# [11] = tested on: Acinetobacter baumannii; assay: Antibacterial activity against Acinetobacter baumannii 1001 assessed as reduction in bacterial viability at 2 or 4 times MIC incubated up to 24 hrs in MHB medium followed by reincubation on MH agar plate for 24 to 48 hrs by time kill kinetics assay; type: functional, organism-based
# [12] = tested on: Acinetobacter baumannii; assay: Induction of pore formation in intact Acinetobacter baumannii 1001 cell membrane assessed as SG uptake at 2 times MIC by SG dye based fluorescence based assay; type: organism-based
# [13] = tested on: Oryctolagus cuniculus; assay: Induction of reepithelialization in injured New Zealand white rabbit cornea assessed as wound healing administered topically for qid measured at day 6 post-injury by fluorescein sodium staining based microscopic imaging analysis (reference value: 24.1 +/- 8.5 %); type: organism-based; details: in vivo, topical_or_ocular
# [14] = tested on: Oryctolagus cuniculus; assay: Induction of reepithelialization in injured New Zealand white rabbit cornea assessed as wound healing at 0.3% administered topically for qid measured at day 1 post-injury by fluorescein sodium staining based microscopic imaging analysis (reference value: 89.9 +/- 2.9 %); type: organism-based; details: in vivo, topical_or_ocular
# [15] = Cytotoxicity against HDF cells assessed as cell viability at 500 ug/ml incubated for 24 hrs by MTS assay relative to control; type: cell-based; details: human, HDF cells (NHDF, human dermal fibroblasts); read-out: Activity
# [16] = tested on: Enterococcus faecalis; assay: Antibacterial activity against vancomycin-resistant Enterococcus faecalis 1002 assessed as log10 reduction in bacterial viability at 2 to 4 times MIC incubated for 30 mins in MHB medium followed by reincubation on MH agar plate for 24 to 48 hrs by time kill kinetics analysis; type: functional
# [17] = tested on: Acinetobacter baumannii; assay: Antibacterial activity against multidrug-resistant Acinetobacter baumannii assessed as reduction in bacterial growth incubated for 24 hrs by broth microdilution method; type: functional
# [18] = tested on: T-cell; assay: Immunogenicity in human PBL T cells assessed as increase in IL-5 production at 62.5 or 125 ug/ml incubated for 24 hrs by ELISA; type: ADME, cell-based
# [19] = tested on: NHDF; assay: Cytotoxicity against HDF cells assessed as truncation and reduction in cytoskeleton at 500 ug/ml incubated for 24 hrs by Alexa Fluor […] phalloidin-FITC/Hoescht dye staining based fluorescence microscopic analysis; type: cell-based; details: human
# [20] = tested on: Staphylococcus aureus; assay: Antibacterial activity against methicillin-sensitive Staphylococcus aureus assessed as reduction in bacterial growth incubated for 24 hrs by broth microdilution method; type: functional
# [21] = tested on: Enterococcus faecalis; assay: Resistance index, ratio of MIC for vancomycin-resistant Enterococcus faecalis 1010 measured after 18 serial passages by broth microdilution method to MIC for vancomycin-resistant Enterococcus faecalis 1010 incubated for 24 hrs by broth microdilution method; type: functional
# [22] = tested on: T-cell; assay: Immunogenicity in human PBL T cells assessed as increase in IL-4 production at 62.5 or 125 ug/ml incubated for 24 hrs by ELISA; type: ADME, cell-based
# [23] = tested on: Enterobacteriaceae; assay: Antibacterial activity against Carbapenem-Resistant Enterobacteriaceae assessed as reduction in bacterial growth incubated for 24 hrs by broth microdilution method; type: functional
# [24] = tested on: Escherichia coli; assay: Induction of pore formation in intact Escherichia coli 1004 cell membrane assessed as SG uptake at 2 times MIC by SG dye based fluorescence based assay; type: organism-based
# [25] = tested on: Enterococcus; assay: Antibacterial activity against vancomycin-resistant Enterococcus assessed as reduction in bacterial growth incubated for 24 hrs by broth microdilution method; type: functional
# [26] = tested on: Enterococcus faecalis; assay: Antibacterial activity against vancomycin-resistant Enterococcus faecalis 1010 assessed as log10 reduction in bacterial viability at 2 to 4 times MIC incubated for 30 mins in MHB medium followed by reincubation on MH agar plate for 24 to 48 hrs by time kill kinetics analysis; type: functional
# [27] = tested on: Oryctolagus cuniculus; assay: Induction of reepithelialization in injured New Zealand white rabbit cornea assessed as wound healing administered topically for qid measured at day 4 post-injury by fluorescein sodium staining based microscopic imaging analysis (reference value: 48.4 +/- 7.6 %); type: organism-based; details: in vivo, topical_or_ocular
# [28] = tested on: Pseudomonas aeruginosa; assay: Antibacterial activity against Pseudomonas aeruginosa assessed as reduction in bacterial growth incubated for 24 hrs by broth microdilution method; type: functional
# [29] = tested on: Enterococcus faecalis; assay: Antibacterial activity against vancomycin-resistant Enterococcus faecalis ATCC 29212 assessed as log10 reduction in bacterial viability at 2 to 4 times MIC incubated for 30 mins in MHB medium followed by reincubation on MH agar plate for 24 to 48 hrs by time kill kinetics analysis; type: functional
# [30] = tested on: T-cell; assay: Immunogenicity in human PBL T cells assessed as increase in IFN-gamma production at 62.5 or 125 ug/ml incubated for 24 hrs by ELISA; type: ADME, cell-based
# [31] = tested on: Oryctolagus cuniculus; assay: Induction of reepithelialization in injured New Zealand white rabbit cornea assessed as wound healing administered topically for qid measured at day 2 post-injury by fluorescein sodium staining based microscopic imaging analysis (reference value: 76.6 +/- 4.5 %); type: organism-based; details: in vivo, topical_or_ocular
# [32] = tested on: Oryctolagus cuniculus; assay: Induction of reepithelialization in injured New Zealand white rabbit cornea assessed as wound healing administered topically for qid measured at day 5 post-injury by fluorescein sodium staining based microscopic imaging analysis (reference value: 39.8 +/- 6.2 %); type: organism-based; details: in vivo, topical_or_ocular
# [33] = Stability of the compound in rabbit tear fluid measured after 2 hrs by UPLC-MS analysis; type: ADME, Oryctolagus cuniculus
# [34] = tested on: Klebsiella pneumoniae; assay: Antibacterial activity against Klebsiella pneumoniae 1008 assessed as reduction in bacterial viability at 2 or 4 times MIC incubated up to 24 hrs in MHB medium followed by reincubation on MH agar plate for 24 to 48 hrs by time kill kinetics assay; type: functional, organism-based
# [35] = tested on: T-cell; assay: Immunogenicity in human PBL T cells assessed as increase in IL-2 production at 62.5 or 125 ug/ml incubated for 24 hrs by ELISA; type: ADME, cell-based
# [36] = tested on: Escherichia coli; assay: Antibacterial activity against Escherichia coli 1004 assessed as reduction in bacterial viability at 2 or 4 times MIC incubated up to 24 hrs in MHB medium followed by reincubation on MH agar plate for 24 to 48 hrs by time kill kinetics assay; type: functional, organism-based
# [37] = tested on: Oryctolagus cuniculus; assay: Induction of reepithelialization in injured New Zealand white rabbit cornea assessed as wound healing administered topically for qid measured at day 7 post-injury by fluorescein sodium staining based microscopic imaging analysis (reference value: 8.6 %); type: organism-based; details: in vivo, topical_or_ocular
smiles,measurement,setting,value
CC[C@H](C)[C@H](NC(=O)CN)C(=O)NCC(=O)N[C@@H](C)C(=O)N[C@H](C(=O)N[C@@H](CC(C)C)C(=O)NCCC[C@@H](CN)C(=O)N[C@H](C(=O)N[C@@H](CC(C)C)C(=O)N[C@H](C(=O)N[C@H](C(=O)NCC(=O)N[C@@H](CC(C)C)C(=O)N1CCC[C@H]1C(=O)N[C@@H](C)C(=O)N[C@@H](CC(C)C)C(=O)N[C@H](C(=O)N[C@@H](CO)C(=O)N[C@@H](Cc1c[nH]c2ccccc12)C(=O)N[C@H](C(=O)N[C@@H](CCCCN)C(=O)N[C@@H](CCCNC(=N)N)C(=O)NCCC[C@@H](CN)C(=O)N[C@@H](CCCNC(=N)N)C(=O)N[C@@H](CCC(N)=O)C(=O)N[C@@H](CCC(N)=O)C(N)=O)[C@@H](C)CC)[C@@H](C)CC)[C@@H](C)O)[C@@H](C)O)C(C)C)C(C)C,HC50 at 1 h,[1],175 µg/mL
same,Activity,[2],Active
same,Activity,[3],63.6%
same,Activity,[4],Toxic
same,remaining at 4 h,[5],87.9%
same,Activity,[6],5.2%
same,Activity,[7],Active
same,MIC,[8],16 to 32 µg/mL
same,MIC50,[8],32 µg/mL
same,Activity,[9],Active
same,MIC50,[10],32 µg/mL
same,Activity,[11],Active
same,Activity,[12],Active
same,Activity,[13],30.2%
same,Activity,[14],90.9%
same,"viability at 24 h, 500 ug/ml",[15],90.7%
same,log(activity),[16],>5
same,MIC,[17],4 to 8 µg/mL
same,MIC50,[17],6 µg/mL
same,Activity,[18],Non-Toxic
same,Activity,[19],Toxic
same,MIC,[20],16 to 64 µg/mL
same,MIC50,[20],32 µg/mL
same,Ratio,[21],16
same,Activity,[22],Non-Toxic
same,MIC,[23],4 to 128 µg/mL
same,MIC50,[23],16 µg/mL
same,Activity,[24],Active
same,MIC,[25],4 to 16 µg/mL
same,MIC50,[25],8 µg/mL
same,log(activity),[26],>5
same,Activity,[27],50.1%
same,MIC,[28],8 to 64 µg/mL
same,MIC50,[28],32 µg/mL
same,log(activity),[29],>5
same,Activity,[30],Non-Toxic
same,Activity,[31],75.4%
same,Activity,[32],42.9%
same,Stability,[33],Stable
same,Activity,[34],Active
same,Activity,[35],Non-Toxic
same,Activity,[36],Active
same,Activity,[37],12.6%
